Source: US7579356B2, “Thia-tetraazaacenaphthylene kinase inhibitors” (Janssen Pharmaceutica NV, priority 2005, dated 2009)

Legend:
Type in all cases: biochemical
[1] = target: T1, EGFR (Homo sapiens, UniProt P00533); experiment: EGFR Kinase Assay; conditions: for inhibition at 2 µM: test concentration of 2 μM, compounds without an IC50, read-out: EGFR inhibition in percent; for IC50: GST-EGFR, ATP 5 μM
T1 construct: The intracellular portion of EGFR started at nucleotide 2189 (corresponding to amino acid 667) and ended at the termination codon; made in house; host or cells: Sf9 insect cells (baculovirus)
How it was run: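 GST-fused human EGFR intracellular domain (from aa 667), Sf9-expressed, phosphorylated biotinylated polyGluTyr with 5 μM ATP plus γ-33P ATP in Tris pH 8.0, MgCl2, vanadate, 1 mM DTT, 1 h at 30 °C. Streptavidin Flashplate scintillation read; triplicate 16-point half-log series from 200 uM; IC50 from % inhibition vs log concentration, else % inhibition at 2 μM.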

[2] = target: T2, HER-2 (Homo sapiens, UniProt P04626); experiment: HER-2 Kinase Assay; conditions: for inhibition at 1 µM: test concentration of 1 μM; for IC50: value in parentheses
T2 construct: His6 with thrombin site (N); purchased Proqinase (Freiburg, Germany)
How it was run: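 GST/HIS6-tagged HER-2 aa 679–1255 kinase with biotinylated polyGluTyr (1.5 ng/μL), 1 μM ATP plus γ-33P-ATP, Mg2+/Mn2+, DTT, Hepes pH 7.5; 1 h at 30 °C. Substrate phosphorylation captured on streptavidin scintillation plates after EDTA/PBS washes; values are % inhibition at 1 μM or IC50.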

[3] = target: T3, c-Src kinase (human) (Homo sapiens, UniProt P12931); experiment: c-Src Kinase Assay; conditions: test concentration of 2 μM; multiple values are separate assay results
T3 construct: purchased Upstate Biotechnology, Lake Placid, N.Y
How it was run: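 Inhibition was read as 33P incorporation, counted on P30 filtermats, after a 40 min, 30° C reaction. Human c-Src acted on 100 μM Cdc2 peptide with 5 μM ATP (final), pH 7.0 MOPS/MgCl2. Values are percent inhibition at 2 μM compound, or IC50 where determined.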

[4] = target: T4, Lyn kinase (human) (Homo sapiens, UniProt P07948); experiment: Lyn Kinase Assay; conditions: test concentration of 2 μM
T4 construct: purchased Upstate Biotechnology, Lake Placid, N.Y
How it was run: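 Radiometric filter-binding assay with recombinant human Lyn, poly(Glu,Tyr) substrate (0.1 mg/mL final), 5 μM ATP plus γ-33P-ATP in MOPS pH 7.5/Mg acetate buffer; 40 min at 30 °C, stopped with phosphoric acid, counted by scintillation. Reported as percent inhibition at 2 μM, with IC50 (μM) where determined.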

T4 sequence (P07948 whole entry): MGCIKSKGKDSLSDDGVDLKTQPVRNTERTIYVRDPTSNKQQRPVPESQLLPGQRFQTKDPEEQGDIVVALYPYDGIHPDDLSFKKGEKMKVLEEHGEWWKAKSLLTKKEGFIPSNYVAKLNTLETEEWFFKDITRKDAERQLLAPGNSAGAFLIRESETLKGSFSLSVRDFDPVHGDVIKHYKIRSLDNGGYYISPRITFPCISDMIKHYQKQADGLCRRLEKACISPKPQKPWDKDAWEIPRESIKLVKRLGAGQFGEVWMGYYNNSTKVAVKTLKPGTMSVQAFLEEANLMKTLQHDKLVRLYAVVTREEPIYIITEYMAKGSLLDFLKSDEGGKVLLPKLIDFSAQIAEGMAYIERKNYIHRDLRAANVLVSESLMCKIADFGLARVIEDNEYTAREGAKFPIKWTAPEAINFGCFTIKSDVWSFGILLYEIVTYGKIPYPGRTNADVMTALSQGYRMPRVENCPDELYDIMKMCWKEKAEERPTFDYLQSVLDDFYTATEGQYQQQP
T2 sequence (P04626 679-1255): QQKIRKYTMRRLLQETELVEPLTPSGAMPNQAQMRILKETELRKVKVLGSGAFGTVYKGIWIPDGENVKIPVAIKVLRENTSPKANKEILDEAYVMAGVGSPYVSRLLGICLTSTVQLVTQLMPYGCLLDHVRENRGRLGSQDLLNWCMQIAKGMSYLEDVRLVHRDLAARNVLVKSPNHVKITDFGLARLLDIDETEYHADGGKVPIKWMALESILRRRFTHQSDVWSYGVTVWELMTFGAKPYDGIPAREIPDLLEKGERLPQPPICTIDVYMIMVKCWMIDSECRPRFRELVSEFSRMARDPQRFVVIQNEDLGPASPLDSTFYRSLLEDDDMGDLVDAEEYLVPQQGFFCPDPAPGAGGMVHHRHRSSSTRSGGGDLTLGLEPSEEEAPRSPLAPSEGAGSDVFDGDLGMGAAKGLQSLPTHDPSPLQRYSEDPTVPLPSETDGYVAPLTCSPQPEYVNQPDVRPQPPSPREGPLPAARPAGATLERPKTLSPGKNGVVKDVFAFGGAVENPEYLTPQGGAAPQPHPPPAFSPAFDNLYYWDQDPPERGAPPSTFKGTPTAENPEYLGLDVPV
T3 sequence (P12931 whole entry): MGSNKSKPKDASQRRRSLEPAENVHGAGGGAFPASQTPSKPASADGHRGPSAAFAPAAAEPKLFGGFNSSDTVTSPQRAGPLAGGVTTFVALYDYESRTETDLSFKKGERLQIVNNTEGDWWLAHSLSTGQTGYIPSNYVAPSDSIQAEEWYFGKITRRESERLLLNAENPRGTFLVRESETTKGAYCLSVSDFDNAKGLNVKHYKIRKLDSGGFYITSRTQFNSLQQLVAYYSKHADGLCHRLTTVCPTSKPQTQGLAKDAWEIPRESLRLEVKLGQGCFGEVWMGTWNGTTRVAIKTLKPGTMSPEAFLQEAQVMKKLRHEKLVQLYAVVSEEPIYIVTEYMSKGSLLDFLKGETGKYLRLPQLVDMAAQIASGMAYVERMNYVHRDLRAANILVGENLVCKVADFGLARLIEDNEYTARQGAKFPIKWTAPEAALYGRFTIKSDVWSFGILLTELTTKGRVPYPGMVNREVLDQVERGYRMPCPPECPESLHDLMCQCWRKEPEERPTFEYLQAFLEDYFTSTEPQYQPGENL
T1 sequence (P00533 669-1210 limits assumed): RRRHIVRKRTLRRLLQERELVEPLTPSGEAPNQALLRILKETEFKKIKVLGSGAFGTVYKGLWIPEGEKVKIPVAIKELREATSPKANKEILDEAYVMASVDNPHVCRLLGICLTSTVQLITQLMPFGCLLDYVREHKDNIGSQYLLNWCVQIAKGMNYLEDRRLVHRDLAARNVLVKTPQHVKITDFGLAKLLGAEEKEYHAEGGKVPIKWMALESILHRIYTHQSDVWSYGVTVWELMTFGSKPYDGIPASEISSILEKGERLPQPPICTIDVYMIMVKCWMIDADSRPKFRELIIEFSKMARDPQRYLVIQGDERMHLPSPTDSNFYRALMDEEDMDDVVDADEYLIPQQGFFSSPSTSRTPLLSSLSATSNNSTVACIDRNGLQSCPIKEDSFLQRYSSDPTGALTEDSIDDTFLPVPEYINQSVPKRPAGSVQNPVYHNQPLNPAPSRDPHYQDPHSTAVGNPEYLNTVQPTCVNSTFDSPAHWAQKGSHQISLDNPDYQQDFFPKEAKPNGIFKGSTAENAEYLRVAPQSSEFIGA

| Structure (SMILES) | inhibition at 2 µM [1] | inhibition at 1 µM [2] | inhibition at 2 µM [3] | inhibition at 2 µM [4] | IC50 [1] | IC50 [2] |
| --- | --- | --- | --- | --- | --- | --- |
| COc1cc(N2C(=O)Nc3c(C(=O)O)sc4ncnc2c34)cc(OC)c1OC [Cpd 42, 4-oxo-5-(3,4,5-trimethoxy-phenyl)-4,5-dihydro-3H-1-thia-3,5,6,8-tetraaza-acenaphthylene-2-carboxylic acid] | -3% | -36% | 8% | 24% |  |  |
| COc1cc(NC(=O)c2sc3ncnc4c3c2NC(=O)N4c2cc(OCc3cccc(F)c3)c(Cl)cc2Cl)ccc1OCCN1CCCCC1 [Cpd 56, 5-[2,4-dichloro-5-(3-fluoro-benzyloxy)-phenyl]-4-oxo-4,5-dihydro-3H-1-thia-3,5,6,8-tetraaza-acenaphthylene-2-carboxylic acid [3-methoxy-4-(2-piperidin-1-yl-ethoxy)-phenyl]-amide] | 20% | -6% | -22% | 7% |  |  |
| CN1CCN(Cc2ccc(NC(=O)c3sc4ncnc5c4c3NC(=O)N5c3ccc(Oc4ccccc4)c(F)c3)cc2)CC1 [Cpd 115, 5-(3-fluoro-4-phenoxy-phenyl)-4-oxo-4,5-dihydro-3H-1-thia-3,5,6,8-tetraaza-acenaphthylene-2-carboxylic acid [4-(4-methyl-piperazin-1-ylmethyl)-phenyl]-amide] |  |  | -1% | 51.2% | 42 nM | 182 nM |
| CC(C)(C)OC(=O)N1CCC(NC(=O)c2sc3ncnc4c3c2NC(=O)N4c2ccc(N3CCOCC3)cc2)CC1 [Cpd 126, 4-{[5-(4-morpholin-4-yl-phenyl)-4-oxo-4,5-dihydro-3H-1-thia-3,5,6,8-tetraaza-acenaphthylene-2-carbonyl]-amino}-piperidine-1-carboxylic acid tert-butyl ester] | 3% |  | -4% | 19% |  | > 100000 nM |
| O=C(Nc1ccc(CN2CCCCC2)cc1)c1sc2ncnc3c2c1NC(=O)N3c1ccccc1Cl [Cpd 150, 5-(2-chloro-phenyl)-4-oxo-4,5-dihydro-3H-1-thia-3,5,6,8-tetraaza-acenaphthylene-2-carboxylic acid (4-piperidin-1-ylmethyl-phenyl)-amide] |  | 18% | 52% | 77% | 170 nM |  |
| O=C(Nc1ccc(CN2CCCC2)cc1)c1sc2ncnc3c2c1NC(=O)N3c1cc(OCc2cccc(F)c2)c(Cl)cc1Cl [Cpd 55, 5-[2,4-dichloro-5-(3-fluoro-benzyloxy)-phenyl]-4-oxo-4,5-dihydro-3H-1-thia-3,5,6,8-tetraaza-acenaphthylene-2-carboxylic acid (4-pyrrolidin-1-ylmethyl-phenyl)-amide] | 14% | -22% | -16% | 3% |  |  |
| COc1ccc(N2C(=O)Nc3c(C(=O)Nc4ccc(CN5CCCCC5)cc4)sc4ncnc2c34)cc1Cl [Cpd 121, 5-(3-chloro-4-methoxy-phenyl)-4-oxo-4,5-dihydro-3H-1-thia-3,5,6,8-tetraaza-acenaphthylene-2-carboxylic acid (4-piperidin-1-ylmethyl-phenyl)-amide] |  |  | -1% | -13% | 344 nM | 3520 nM |
| COc1ccc(N2C(=O)Nc3c(C(=O)Nc4ccc(CN5CCOCC5)cc4)sc4ncnc2c34)c(F)c1 [Cpd 65, 5-(2-fluoro-4-methoxy-phenyl)-4-oxo-4,5-dihydro-3H-1-thia-3,5,6,8-tetraaza-acenaphthylene-2-carboxylic acid (4-morpholin-4-ylmethyl-phenyl)-amide] |  | 58% | -9% | 17.8% | 120 nM | 643 nM |
| Cc1cccc(Cl)c1N1C(=O)Nc2c(C(=O)Nc3ccc(CN4CCOCC4)cc3)sc3ncnc1c23 [Cpd 146, 5-(2-chloro-6-methyl-phenyl)-4-oxo-4,5-dihydro-3H-1-thia-3,5,6,8-tetraaza-acenaphthylene-2-carboxylic acid (4-morpholin-4-ylmethyl-phenyl)-amide] | 37% | 21% | 45% | 65% |  |  |
| COc1cc(NC(=O)c2sc3ncnc4c3c2NC(=O)N4c2ccc(Oc3ccccc3)cc2)ccc1OCCN1CCOCC1 [Cpd 167, 4-oxo-5-(4-phenoxy-phenyl)-4,5-dihydro-3H-1-thia-3,5,6,8-tetraaza-acenaphthylene-2-carboxylic acid [3-methoxy-4-(2-morpholin-4-yl-ethoxy)-phenyl]-amide] |  |  | 35% | 51% | 20 nM | 129 nM |
| O=C(Nc1ccc(CN2CCOCC2)cc1)c1sc2ncnc3c2c1NC(=O)N3c1ccc(F)c(Br)c1 [Cpd 153, 5-(3-bromo-4-fluoro-phenyl)-4-oxo-4,5-dihydro-3H-1-thia-3,5,6,8-tetraaza-acenaphthylene-2-carboxylic acid (4-morpholin-4-ylmethyl-phenyl)-amide] |  | 70% | 16% | -4% | 159 nM | 294 nM |
| O=C(O)c1sc2ncnc3c2c1NC(=O)N3c1cc(OCc2cccc(F)c2)c(Cl)cc1Cl [Cpd 58, 5-[2,4-dichloro-5-(3-fluoro-benzyloxy)-phenyl]-4-oxo-4,5-dihydro-3H-1-thia-3,5,6,8-tetraaza-acenaphthylene-2-carboxylic acid] | 16% | -27% | -48% | 6% |  |  |
| Cc1ccc(Oc2ccc(N3C(=O)Nc4c(C(=O)Nc5ccc(CN6CCOCC6)cc5)sc5ncnc3c45)cc2Cl)cn1 [Cpd 129, 5-[3-chloro-4-(6-methyl-pyridin-3-yloxy)-phenyl]-4-oxo-4,5-dihydro-3H-1-thia-3,5,6,8-tetraaza-acenaphthylene-2-carboxylic acid (4-morpholin-4-ylmethyl-phenyl)-amide] |  | 63% | -3% | 10% | 154 nM | 515 nM |
| COc1cc(NC(=O)c2sc3ncnc4c3c2NC(=O)N4c2ccc(Br)cc2F)ccc1OCCN1CCOCC1 [Cpd 39, 5-(4-bromo-2-fluoro-phenyl)-4-oxo-4,5-dihydro-3H-1-thia-3,5,6,8-tetraaza-acenaphthylene-2-carboxylic acid [3-methoxy-4-(2-morpholin-4-yl-ethoxy)-phenyl]-amide] |  | 24% | 16% | 11% | 410 nM |  |
| COc1cc(N2C(=O)Nc3c(C(=O)Nc4ccc(OC)c(OC)c4)sc4ncnc2c34)c(Cl)cc1Cl [Cpd 35, 5-(2,4-dichloro-5-methoxy-phenyl)-4-oxo-4,5-dihydro-3H-1-thia-3,5,6,8-tetraaza-acenaphthylene-2-carboxylic acid (3,4-dimethoxy-phenyl)-amide] |  | -12% | 7% | -11% | 5710 nM |  |
| C[C@H](c1ccccc1)N1C(=O)Nc2c(C(=O)O)sc3ncnc1c23 [Cpd 170, 4-oxo-5-[(1R)-1-phenyl-ethyl]-4,5-dihydro-3H-1-thia-3,5,6,8-tetraaza-acenaphthylene-2-carboxylic acid] | 11% |  | 4% | 12% |  | > 100000 nM |
| COc1cc(NC(=O)c2sc3ncnc4c3c2NC(=O)N4c2ccc(F)cc2Cl)ccc1OCCN1CCCCC1 [Cpd 144, 5-(2-chloro-4-fluoro-phenyl)-4-oxo-4,5-dihydro-3H-1-thia-3,5,6,8-tetraaza-acenaphthylene-2-carboxylic acid [3-methoxy-4-(2-piperidin-1-yl-ethoxy)-phenyl]-amide] |  | 18% | 67% | 84% | 330 nM |  |
| O=C(NCCCO)c1sc2ncnc3c2c1NC(=O)N3c1ccc(F)c(Br)c1 [Cpd 154, 5-(3-bromo-4-fluoro-phenyl)-4-oxo-4,5-dihydro-3H-1-thia-3,5,6,8-tetraaza-acenaphthylene-2-carboxylic acid (3-hydroxy-propyl)-amide] |  | 12% | 8% | 7% | 592 nM | > 10000 nM |
| CN1CCN(Cc2ccc(NC(=O)c3sc4ncnc5c4c3NC(=O)N5c3ccccc3Cl)cc2)CC1 [Cpd 151, 5-(2-chloro-phenyl)-4-oxo-4,5-dihydro-3H-1-thia-3,5,6,8-tetraaza-acenaphthylene-2-carboxylic acid [4-(4-methyl-piperazin-1-ylmethyl)-phenyl]-amide] |  | 29% | 53% | 61% | 603 nM |  |
